# According to ChEMBL document CHEMBL1122784, “Antitumor imidazotetrazines. 1. Synthesis and chemistry of 8-carbamoyl-3-(2-chloroethyl)imidazo[5,1-d]-1,2,3,5-tetrazin-4(3 H)-one , a novel broad-spectrum antitumor agent” (J Med Chem, 1984):
# Key:
# Type in all cases: ADME
# [1] = Half-life period in 95% ethanol in dark at 28 degrees celsius.
# [2] = Half-life period in 95% ethanol in diffuse laboratory light at 28 degrees celsius.
# [3] = Half-life period in 95% ethanol in diffuse laboratory light at 28 degrees celsius
# [4] = Half-life period in phosphate buffer at pH 7.4 in the dark at 28 degrees celsius.
SMILES,half-life [1] [min],half-life [2] [min],half-life [3] [min],half-life [4] [min]
Cc1ccc(-n2nnc3c(C(N)=O)ncn3c2=O)cc1,40,7.5,,
Cn1nnc2c(C(N)=O)ncn2c1=O [TEMOZOLOMIDE],495,,495,
NC(=O)c1ncn2c(=O)n(-c3ccccc3)nnc12,23,9,,
NC(=O)c1ncn2c(=O)n(-c3ccc(Cl)cc3)nnc12,6.3,8.2,,2.9
NC(=O)c1ncn2c(=O)n(-c3ccc([N+](=O)[O-])cc3)nnc12,< 1,,,
N#Cc1cccc(-n2nnc3c(C(N)=O)ncn3c2=O)c1,2.6,,,
CCOc1ccc(-n2nnc3c(C(N)=O)ncn3c2=O)cc1,78,8,,
NC(=O)c1ncn2c(=O)n(-c3cccc4ccccc34)nnc12,4.6,,,
COc1ccc(-n2nnc3c(C(N)=O)ncn3c2=O)cc1,69,8.5,,155
CCCn1nnc2c(C(N)=O)ncn2c1=O,155,155,,
